US10604552B2, “Generation of novel metabolite-responsive transcription regulator biosensors” (NORTHWESTERN UNIVERSITY, priority 2016, dated 2020)

Tested on: TOP10 Escherichia coli cells
Format: cell-based
Conditions: 100 mM maltose; SP biosensor with No Sites or Go66 reporter
Protocol: All experiments were conducted in TOP10 Escherichia coli cells (F-mcrA Δ(mrr-hsdRMS-mcrBC) φ80lacZAM15 ΔlacX74 nupG recAl araD139 Δ(ara-leu)7697 galE15 galK16 rpsL(Str^R) endA1 λ^−) (Life Technologies). Cells were maintained in Lysogeny Broth (LB) Lennox formulation (10 g/L of tryptone, 5 g/L of yeast extract, 5 g/L of NaCl) supplemented with appropriate antibiotics (Ampicillin 100 μg/mL or Kanamycin 50 μg/mL). All experimental analysis was conducted in M9 minimal media (1×M9 salts, 0.2% Casamino Acids, 2 mM MgSO^4, 0.1 mM CaCl^2, 1 mM Thiamine HCl) containing glycerol (0.4%) as the primary carbon source. 1% arabinose and variable amounts of maltose monohydrate and isopropyl β-D-1-thiogalactopyranoside (IPTG) were added as indicated. M9 medium containing both Ampicillin and Kanamycin was used to maintain the strains that contained both a reporter plasmid and a biosensor plasmid.
Cultures were inoculated from single colonies into 2 mL of M9 media and grown overnight to stationary phase. Overnight cultures were diluted 1:20 and grown into exponential phase (OD600˜0.5). […] Plates with lids were incubated and shaken in a continuous double orbital pattern at 548 cpm (2 mm) inside a BioTek Synergy H1 plate reader for 10 h with GFP, mCherry, and OD600 measurements taken every 15 min. […]

Structure (SMILES): OC[C@H]1O[C@H](O[C@H]2[C@H](O)[C@@H](O)C(O)O[C@@H]2CO)[C@H](O)[C@@H](O)[C@@H]1O (mixture of isomers) [maltose]
- impact on cell growth: did not substantially impact cell growth
